≈ marks a conversion by molar mass, not a printed value.
How the values were obtained:
Format in all cases: functional
Acinetobacter baumannii [1] = assay: Antimicrobial activity against ISAba1 linked with the blaOXA-51-type beta-lactamase harboring Acinetobacter baumannii beta clonal group isolate 14 expressing ompA, adeB, adeM, aacA4, blaSHV-5 by Etest method
Acinetobacter baumannii [2] = assay: Antimicrobial activity against ISAba1 linked with the blaOXA-51-type beta-lactamase harboring Acinetobacter baumannii lambda clonal group isolate 28 expressing ampC, ompA, adeM, aadB, aadA1 by Etest method
Acinetobacter baumannii [3] = assay: Antimicrobial activity against Acinetobacter baumannii nu clonal group isolate 31 expressing ampC, ompA, adeB, adeM, aadB, aadA2 by Etest method
Acinetobacter baumannii [4] = assay: Antimicrobial activity against Acinetobacter baumannii unique clonal group isolate 37 expressing ampC, ompA, adeB, adeM by Etest method
Acinetobacter baumannii [5] = assay: Antimicrobial activity against ISAba1 linked with the blaOXA-51-type beta-lactamase harboring Acinetobacter baumannii beta clonal group isolate 13 expressing ompA, adeB, adeM, aacA4, blaSHV-5 by Etest method
Acinetobacter baumannii [6] = assay: Antimicrobial activity against ISAba1 linked with the blaOXA-51-type beta-lactamase harboring Acinetobacter baumannii beta clonal group isolate 11 expressing ompA, adeB, adeM, blaSHV-5 by Etest method
Acinetobacter baumannii [7] = assay: Antimicrobial activity against Acinetobacter baumannii nu clonal group isolate 32 expressing ampC, ompA, adeB, adeM, aadB, aadA2 by Etest method
Acinetobacter baumannii [8] = assay: Antimicrobial activity against ISAba1 linked with the blaOXA-51-type beta-lactamase harboring Acinetobacter baumannii alpha clonal group isolate 1 expressing ampC, ompA, adeB, adeM by Etest method
Acinetobacter baumannii [9] = assay: Antimicrobial activity against ISAba1 linked with the blaOXA-51-type beta-lactamase harboring Acinetobacter baumannii unique clonal group isolate 40 expressing ampC, ompA, adeB, adeM, aadA1, aacA4, aacC2, blaSHV-5 by Etest method
Acinetobacter baumannii [10] = assay: Antimicrobial activity against ISAba1 linked with the blaOXA-51-type beta-lactamase harboring Acinetobacter baumannii beta clonal group isolate 9 expressing ampC, ompA, adeB, adeM by Etest method
Acinetobacter baumannii [11] = assay: Antimicrobial activity against ISAba1 linked with the blaOXA-51-type beta-lactamase harboring Acinetobacter baumannii alpha clonal group isolate 8 expressing ampC, ompA, adeB, adeM, aacC1, aadA1 by Etest method
Acinetobacter baumannii [12] = assay: Antimicrobial activity against ISAba1 linked with the blaOXA-51-type beta-lactamase harboring Acinetobacter baumannii alpha clonal group isolate 7 expressing ampC, ompA, adeB, adeM, blaSHV-5 by Etest method
Acinetobacter baumannii [13] = assay: Antimicrobial activity against Acinetobacter baumannii unique clonal group isolate 39 expressing ampC, ompA, adeM by Etest method
Acinetobacter baumannii [14] = assay: Antimicrobial activity against ISAba1 linked with the blaOXA-51-type beta-lactamase harboring Acinetobacter baumannii beta clonal group isolate 17 expressing ompA, adeB, adeM, aacA4, blaSHV-5 by Etest method
Acinetobacter baumannii [15] = assay: Antimicrobial activity against ISAba1 linked with the blaOXA-51-type beta-lactamase harboring Acinetobacter baumannii zeta clonal group isolate 26 expressing ampC, ompA, adeB, adeM, aadA1, aacA4, aacC2, blaSHV-5 by Etest method
Acinetobacter baumannii [16] = assay: Antimicrobial activity against ISAba1 linked with the blaOXA-51-type beta-lactamase harboring Acinetobacter baumannii beta clonal group isolate 16 expressing ompA, adeB, adeM, aacA4, blaSHV-5 by Etest method
Acinetobacter baumannii [17] = assay: Antimicrobial activity against ISAba1 linked with the blaOXA-51-type beta-lactamase harboring Acinetobacter baumannii beta clonal group isolate 12 expressing ompA, adeB, adeM, aacA4, aacC2, blaSHV-5 by Etest method
Acinetobacter baumannii [18] = assay: Antimicrobial activity against Acinetobacter baumannii lambda clonal group isolate 27 expressing ampC, ompA, adeB, adeM, aadB, aadA1 by Etest method
Acinetobacter baumannii [19] = assay: Antimicrobial activity against ISAba1 linked with the blaOXA-51-type beta-lactamase harboring Acinetobacter baumannii zeta clonal group isolate 21 expressing ampC, ompA, adeB, adeM, aacC2, blaSHV-5 by Etest method
Acinetobacter baumannii [20] = assay: Antimicrobial activity against ISAba1 linked with the blaOXA-51-type beta-lactamase harboring Acinetobacter baumannii zeta clonal group isolate 24 expressing ampC, ompA, adeB, adeM, aadA1, aacA4, aacC2, blaSHV-5 by Etest method
Acinetobacter baumannii [21] = assay: Antimicrobial activity against Acinetobacter baumannii eta clonal group isolate 35 expressing ampC, ompA, adeB, adeM by Etest method
Acinetobacter baumannii [22] = assay: Antimicrobial activity against ISAba1 linked with the blaOXA-51-type beta-lactamase harboring Acinetobacter baumannii zeta clonal group isolate 25 expressing ampC, ompA, adeB, adeM, aadA1, aacA4, aacC2, blaSHV-5 by Etest method
Acinetobacter baumannii [23] = assay: Antimicrobial activity against Acinetobacter baumannii alpha clonal group isolate 4 expressing ampC, ompA, adeB, adeM, aacC1, aadA1 by Etest method
Acinetobacter baumannii [24] = assay: Antimicrobial activity against ISAba1 linked with the blaOXA-51-type beta-lactamase harboring Acinetobacter baumannii alpha clonal group isolate 6 expressing ampC, ompA, adeB, adeM, aacC1, aadA1 by Etest method
Acinetobacter baumannii [25] = assay: Antimicrobial activity against Acinetobacter baumannii alpha clonal group isolate 5 expressing ampC, ompA, adeB, adeM, aacC1, aadA1 by Etest method
Acinetobacter baumannii [26] = assay: Antimicrobial activity against Acinetobacter baumannii unique clonal group isolate 38 expressing ampC, ompA, adeB, adeM by Etest method
Acinetobacter baumannii [27] = assay: Antimicrobial activity against Acinetobacter baumannii nu clonal group isolate 34 expressing ampC, ompA, adeB, adeM by Etest method
Acinetobacter baumannii [28] = assay: Antimicrobial activity against Acinetobacter baumannii alpha clonal group isolate 2 expressing ampC, ompA, adeB, adeM, aacC1, aadA1 by Etest method
Acinetobacter baumannii [29] = assay: Antimicrobial activity against Acinetobacter baumannii eta clonal group isolate 36 expressing ampC, ompA, adeB, adeM by Etest method
Acinetobacter baumannii [30] = assay: Antimicrobial activity against ISAba1 linked with the blaOXA-51-type beta-lactamase harboring Acinetobacter baumannii lambda clonal group isolate 30 expressing ampC, ompA, adeB, adeM, aadB, aadA1 by Etest method
Acinetobacter baumannii [31] = assay: Antimicrobial activity against ISAba1 linked with the blaOXA-51-type beta-lactamase harboring Acinetobacter baumannii lambda clonal group isolate 29 expressing ampC, ompA, adeM, aadB, aadA1 by Etest method
Acinetobacter baumannii [32] = assay: Antimicrobial activity against ISAba1 linked with the blaOXA-51-type beta-lactamase harboring Acinetobacter baumannii zeta clonal group isolate 19 expressing ampC, ompA, adeB, adeM, aacC2 by Etest method
Acinetobacter baumannii [33] = assay: Antimicrobial activity against ISAba1 linked with the blaOXA-51-type beta-lactamase harboring Acinetobacter baumannii beta clonal group isolate 18 expressing ompA, adeB, adeM, aacA4, blaSHV-5 by Etest method
Acinetobacter baumannii [34] = assay: Antimicrobial activity against ISAba1 linked with the blaOXA-51-type beta-lactamase harboring Acinetobacter baumannii beta clonal group isolate 15 expressing ompA, adeB, adeM, aacA4, blaSHV-5 by Etest method
Acinetobacter baumannii [35] = assay: Antimicrobial activity against Acinetobacter baumannii nu clonal group isolate 33 expressing ampC, ompA, adeB, adeM by Etest method
Acinetobacter baumannii [36] = assay: Antimicrobial activity against ISAba1 linked with the blaOXA-51-type beta-lactamase harboring Acinetobacter baumannii beta clonal group isolate 10 expressing ompA, adeB, adeM, aacA4, blaSHV-5 by Etest method
Acinetobacter baumannii [37] = assay: Antimicrobial activity against ISAba1 linked with the blaOXA-51-type beta-lactamase harboring Acinetobacter baumannii zeta clonal group isolate 20 expressing ampC, ompA, adeB, adeM, aacC2 by Etest method
Acinetobacter baumannii [38] = assay: Antimicrobial activity against Acinetobacter baumannii alpha clonal group isolate 3 expressing ampC, ompA, adeB, adeM, aacC1, aadA1 by Etest method
Acinetobacter baumannii [39] = assay: Antimicrobial activity against ISAba1 linked with the blaOXA-51-type beta-lactamase harboring Acinetobacter baumannii zeta clonal group isolate 23 expressing ampC, ompA, adeB, adeM, aadA1, aacA4, aacC2, aphA6 by Etest method
Acinetobacter baumannii [40] = assay: Antimicrobial activity against ISAba1 linked with the blaOXA-51-type beta-lactamase harboring Acinetobacter baumannii zeta clonal group isolate 22 expressing ampC, ompA, adeB, adeM, aadA1, aacA4, aacC2, blaSHV-5 by Etest method

| Compound | MIC (Acinetobacter baumannii [1]) | MIC (Acinetobacter baumannii [2]) | MIC (Acinetobacter baumannii [3]) | MIC (Acinetobacter baumannii [4]) | MIC (Acinetobacter baumannii [5]) | MIC (Acinetobacter baumannii [6]) | MIC (Acinetobacter baumannii [7]) | MIC (Acinetobacter baumannii [8]) | MIC (Acinetobacter baumannii [9]) | MIC (Acinetobacter baumannii [10]) | MIC (Acinetobacter baumannii [11]) | MIC (Acinetobacter baumannii [12]) | MIC (Acinetobacter baumannii [13]) | MIC (Acinetobacter baumannii [14]) | MIC (Acinetobacter baumannii [15]) | MIC (Acinetobacter baumannii [16]) | MIC (Acinetobacter baumannii [17]) | MIC (Acinetobacter baumannii [18]) | MIC (Acinetobacter baumannii [19]) | MIC (Acinetobacter baumannii [20]) | other results |
| --- | --- | --- | --- | --- | --- | --- | --- | --- | --- | --- | --- | --- | --- | --- | --- | --- | --- | --- | --- | --- | --- |
| C[C@@H](O)[C@H]1C(=O)N2C(C(=O)O)=C(SCCNC=N)C[C@H]12 [IMIPENEM ANHYDROUS] | > 16 µg/mL | 16 µg/mL (≈ 53.4 µM) | 0.25 µg/mL (≈ 0.835 µM) | 0.5 µg/mL (≈ 1.67 µM) | > 16 µg/mL | > 32 µg/mL | 0.25 µg/mL (≈ 0.835 µM) | 2 µg/mL (≈ 6.68 µM) | > 32 µg/mL | 12 µg/mL (≈ 40.1 µM) | 6 µg/mL (≈ 20 µM) | 4 µg/mL (≈ 13.4 µM) | 0.25 µg/mL (≈ 0.835 µM) | > 16 µg/mL | > 1.5 µg/mL | > 16 µg/mL | 32 µg/mL (≈ 107 µM) | 4 µg/mL (≈ 13.4 µM) | 6 µg/mL (≈ 20 µM) | > 1.5 µg/mL | MIC (Acinetobacter baumannii [21]): 0.25 µg/mL (≈ 0.835 µM); MIC (Acinetobacter baumannii [22]): > 1.5 µg/mL; MIC (Acinetobacter baumannii [23]): 0.38 µg/mL (≈ 1.27 µM); MIC (Acinetobacter baumannii [24]): 3 µg/mL (≈ 10 µM); MIC (Acinetobacter baumannii [25]): 0.38 µg/mL (≈ 1.27 µM); MIC (Acinetobacter baumannii [26]): 0.19 µg/mL (≈ 0.635 µM); MIC (Acinetobacter baumannii [27]): 0.25 µg/mL (≈ 0.835 µM); MIC (Acinetobacter baumannii [28]): 0.38 µg/mL (≈ 1.27 µM); MIC (Acinetobacter baumannii [29]): 0.25 µg/mL (≈ 0.835 µM); MIC (Acinetobacter baumannii [30]): 8 µg/mL (≈ 26.7 µM); MIC (Acinetobacter baumannii [31]): 16 µg/mL (≈ 53.4 µM); MIC (Acinetobacter baumannii [32]): 1 µg/mL (≈ 3.34 µM); MIC (Acinetobacter baumannii [33]): 12 µg/mL (≈ 40.1 µM); MIC (Acinetobacter baumannii [34]): > 16 µg/mL; MIC (Acinetobacter baumannii [35]): 0.25 µg/mL (≈ 0.835 µM); MIC (Acinetobacter baumannii [36]): 16 µg/mL (≈ 53.4 µM); MIC (Acinetobacter baumannii [37]): 1 µg/mL (≈ 3.34 µM); MIC (Acinetobacter baumannii [38]): 0.38 µg/mL (≈ 1.27 µM); MIC (Acinetobacter baumannii [39]): > 32 µg/mL; MIC (Acinetobacter baumannii [40]): 16 µg/mL (≈ 53.4 µM) |
| CC(C)(O/N=C(\C(=O)N[C@@H]1C(=O)N2C(C(=O)[O-])=C(C[n+]3ccccc3)CS[C@H]12)c1csc(N)n1)C(=O)O [CEFTAZIDIME] | > 48 µg/mL | > 256 µg/mL | 4 µg/mL (≈ 7.32 µM) | 12 µg/mL (≈ 22 µM) | > 48 µg/mL | 128 µg/mL (≈ 234 µM) | 4 µg/mL (≈ 7.32 µM) | > 256 µg/mL | > 256 µg/mL | 48 µg/mL (≈ 87.8 µM) | 96 µg/mL (≈ 176 µM) | > 256 µg/mL | 4 µg/mL (≈ 7.32 µM) | > 48 µg/mL | > 256 µg/mL | > 48 µg/mL | > 256 µg/mL | > 256 µg/mL | 32 µg/mL (≈ 58.5 µM) | > 256 µg/mL | MIC (Acinetobacter baumannii [21]): 12 µg/mL (≈ 22 µM); MIC (Acinetobacter baumannii [22]): > 256 µg/mL; MIC (Acinetobacter baumannii [23]): > 256 µg/mL; MIC (Acinetobacter baumannii [24]): > 256 µg/mL; MIC (Acinetobacter baumannii [25]): > 256 µg/mL; MIC (Acinetobacter baumannii [26]): 16 µg/mL (≈ 29.3 µM); MIC (Acinetobacter baumannii [27]): 6 µg/mL (≈ 11 µM); MIC (Acinetobacter baumannii [28]): > 256 µg/mL; MIC (Acinetobacter baumannii [29]): 12 µg/mL (≈ 22 µM); MIC (Acinetobacter baumannii [30]): > 256 µg/mL; MIC (Acinetobacter baumannii [31]): > 256 µg/mL; MIC (Acinetobacter baumannii [32]): 24 µg/mL (≈ 43.9 µM); MIC (Acinetobacter baumannii [33]): 96 µg/mL (≈ 176 µM); MIC (Acinetobacter baumannii [34]): > 48 µg/mL; MIC (Acinetobacter baumannii [35]): 6 µg/mL (≈ 11 µM); MIC (Acinetobacter baumannii [36]): 48 µg/mL (≈ 87.8 µM); MIC (Acinetobacter baumannii [37]): 24 µg/mL (≈ 43.9 µM); MIC (Acinetobacter baumannii [38]): > 256 µg/mL; MIC (Acinetobacter baumannii [39]): 16 µg/mL (≈ 29.3 µM); MIC (Acinetobacter baumannii [40]): > 256 µg/mL |
